Data from patent publication US20260258035A1, “FIVE-MEMBERED AND SIX-MEMBERED NITROGEN-CONTAINING COMPOUND, AND INTERMEDIATE, PREPARATION METHOD AND USE THEREOF” (HANGZHOU SYNRX THERAPEUTICS BIOMEDICAL TECHNOLOGY CO., LTD., priority 2022, published 2026).
≈ marks a conversion by molar mass, not a printed value. Read-outs that look alike come from different tables or passages of the source.

Legend:
Mouse PK assay = assay type: in vivo; details: CD1 mice, oral administration, 30 mg/kg, plasma; for bioavailability / half-life / MRT: mouse; for half-life: read-out: Half-life period (converted); for MRT: read-out: Mean residence time
Protocol: The goal of this assay was to study the pharmacokinetics of the test compound on CD1 mice (6-8 weeks old, Zhejiang Vegavit Bio-technology Co., Ltd.) after oral administration. The specific experimental procedures were as follows: • 1) the compound was dissolved in 8% DMSO+72% PEG 400+20% ([…]); and • 2) blood samples were collected, with 0.03 mL collected at 0.25 h, 0.5 h, 1 h, 2 h, 4 h, 8 h, and 24 h, and EDTA-K2 was added. CD1 mice: Approximately 0.03 mL of blood was collected at each time point. The blood was centrifuged for 5 min at 4000 g in a centrifuge at 4° C. to collect plasma. Plasma samples were aliquoted into clean polyethylene microcentrifuge tubes and then stored in a freezer at −75±15° C. before analysis; and • 3) samples were analyzed, and the concentration of the compound in each plasma sample was analyzed with LC-MS/MS. For plasma measurements, pharmacokinetic parameters were calculated using WinNonlin (Phoenix™, version 8.3) or other similar software.

[1] = Solubility assay (FaSSGF / FaSSIF); assay type: physicochemical; details: kinetic from dmso stock, 2 h at 25° C.
Protocol: 1). Preparation of Solutions:
The FaSSGF solution was prepared as follows: • a) preparation of FaSSGF buffer: dissolve 2.0 g of NaCl as the raw material in about 0.9 L of purified water; • b) adjustment of the pH of the buffer: adjust the pH of the buffer to 1.6 with 1N HCL, and replenish the buffer with purified water to the volume of 1 L; and • c) preparation of FaSSGF solution by addition of FaSSGF powder: add 0.06 g of the FaSSGF powder to about 0.5 L of the buffer, stir until the powder was completely dissolved, and make up for the volume (1 L) with the buffer.
The FaSSIF solution was prepared as follows: • a) preparation of FaSSIF buffer: dissolve 0.42 g of NaOH, 3.44 g of anhydrous NaH2PO4, and 6.19 g of NaCl as raw materials in about 0.9 L of purified water; • b) adjustment the pH of the buffer: adjust the pH of the buffer to 6.5 with 1 N NaOH or 1 N HCL, and replenish the buffer with purified water to the volume of 1 L; and • c) preparation of FaSSIF solution by addition of FaSSIF powder: add 2.24 g of the FaSSIF powder to about 0.5 L of the buffer, stir until the powder was completely dissolved, and make up for the volume (1 L) with the buffer.
2). Preparation of the Solution of Control Compound:
The control compound was weighed and dissolved in DMSO to 10 mM to obtain a stock solution.
3) Preparation of the Solution of Compound to be Tested:
The compound to be tested was formulated into a 10 mM DMSO stock solution.
4) Preparation of Internal Standard Solution:
a) The internal standard was weighed and dissolved in DMSO to 10 mM to obtain an internal standard stock solution (ISTD stock solution).
b) The internal standard stock solution was diluted to 500 nM (Tolbutamide) with an ACN:methano mixture (volume ratio: 1:1) to obtain a quenching solution.
a) The FaSSGF solution at pH 1.6 and the FaSSIF solution at pH 6.5 were pre-warmed; and then, the compound was injected into the buffer.
Once done, the samples were centrifuged at 12,000 rpm for 10 min, and the supernatant was transferred to a new tube. The supernatant was diluted 10-fold and 100-fold with the FaSSGF solution at pH 1.6 or the FaSSIIF solution at pH 6.5. 20 μL of each sample (1×, 10×, 100× and standard curve) was added to 500 μL of the IS solution. The resulting mixture was vortexed vigorously for 1 min and centrifuged at 4,500 rpm for 15 min at 4° C. 150 μL of the supernatant was transferred for LC-MS/MS sample analysis.

HCC1806 = test: Cell viability assay (CellTiter-Glo); assay type: cell-based, Human; details: HCC1806, 7 days, CellTiter-Glo, read-out: IC50 (nM) in cell viability assay
[2] = fassgf or other biorelevant, FaSSGF solution pH 1.6, 100 μM from DMSO stock, read-out: FaSSGF solubility
[3] = FaSSIF solution pH 6.5, 100 μM from DMSO stock, read-out: FaSSIF solubility

Row | Area under the curve (0-last; hr*ng/mL) (Mouse PK assay) [ng·h/mL] | Peak concentration (Mouse PK assay) [ng/mL] | Time to peak (Mouse PK assay) [h] | bioavailability (Mouse PK assay) [%] | half-life (Mouse PK assay) [h] | MRT (Mouse PK assay) [h] | solubility at 2 h [1, 2] [µM] | solubility at 2 h [1, 3] [µM] | IC50 (HCC1806) [nM] | IC50 (HCC1806; Homo sapiens, HCC1806, 168 h) [nM] | Structure (SMILES)
1 | 13174 | 5317 | 0.333 | 47 | 1.31 | 1.92 | 0.9 (≈ 0.496 µg/mL) | 3.18 (≈ 1.75 µg/mL) | – | – | CC(C)C(=O)N1CCN(c2cc(S(=O)(=O)NC3(C#N)CC3)cn3c(-c4nnc(C(F)F)s4)ncc23)CC1 [Example 32, N-(1-cyanocyclopropyl)-3-(5-(difluoromethyl)-1,3,4-thiadiazol-2-yl)-8-(4-isobutyrylpiperazin-1-yl)imidazo[1,5-a]pyridine-6-sulfonamide]
2 | 29273 | 4087 | 1.67 | 85 | 2.75 | 4.81 | 57.5 (≈ 32.7 µg/mL) | 96.5 (≈ 54.9 µg/mL) | 290 | < 500 | CC(C)C(=O)N1CCN(c2cc(S(=O)(=O)NC3(C#N)CC3)cn3c(-c4nnc(C(F)(F)F)s4)ncc23)CC1 [Example 167, N-(1-cyanocyclopropyl)-8-(4-isobutyrylpiperazin-1-yl)-3-(5-(trifluoromethyl)-1,3,4-thiadiazol-2-yl)imidazo[1,5-a]pyridine-6-sulfonamide]
